Data set [1] has as its system NO bond at the 3′ position of a polynucleotide. The experiment in a line: Octet/CE cyclic extension assay (SBB extension cycles, extended primer length read by capillary electrophoresis). It is filed as biochemical. An excerpt: The polynucleotides were Cy3-primers hybridized to biotinylated template DNA which were in turn bound to streptavidin coated tips of the Octet system. The Octet system move a set of 8 tips between the wells of a heated 96-well plate, for a set number of SBB extension cycles. Each cycle included an IMG step under conditions at which fluorescent nucleotides of ternary complexes could be imaged, an RTN step in which amineoxy terminated nucleotides were incorporated at the 3′ end of the primer by a polymerase, a wash step that removes excess nucleotides, and a CLV step that exposes the amineoxy terminated extended primer to a deblocking agent or candidate. The length of extended polynucleotides were then detected by capillary electrophoresis (CE), as described in US Patent Pub. No. 2019/0241945, the content of which is incorporated herein.
Polynucleotide sequence was synthesized using the Octet/CE method where non-extendable polynucleotides having a 3′ amineoxy group were used to reversibly stop extension, as shown in the workflow scheme of FIG. 1A.
(§1) CDP was formulated with a number of different buffers at different pH and various different amines as solubility enhancers. 47 formulations were made and tested. In general, CDP was dissolved in water and loaded onto Dowex 50™ cation exchange resin, and incubated for a few minutes. The resin was eluted with an aqueous solution of the amine solubility enhancer. The resulting solution was either used directly in Octet/CE assays or dried form a solid that was very soluble in water.
A number of other carbonyl compounds were test for their ability to cleave the NO bond at the 3′ position of a polynucleotide, according to the assay design shown in FIG. 1A.
Deblocking candidates were tested at various concentrations, generally between 1 and 100 mM (e.g., at 1 mM, 2 mM, 4 mM, 8 mM, 20 mM, 35 mM, 40 mM, 70 mM, and/or 100 mM for different candidates), in acetate (1 M) and tris (0.2 M) buffers, and buffered at pH 6 or 8, with and without amine counterion.
In general terms: In BLI a coated tip is dipped into the sample, and binding shifts an interference pattern.

Data set [2] deals with library of polynucleotides. The data set is described as follows: Sequencing-by-binding run, On/Off signal intensity by cycle. It is filed as biochemical. The conditions noted are these: after 150 cycles, CDP versus SOP (sodium NO2). On the procedure: A library of polynucleotides were sequenced in a sequencing-by-binding workflow, and On/Off signal intensity was measured in each sequencing cycle, as described in US Patent Pub. No. 2020/0032317, the content of which is incorporate herein. Specifically, ‘on’ signal intensity (corresponds to the binding of the cognate nucleotide) and ‘off’ signal intensity (corresponds to the binding of the non-cognate nucleotide) in each SBB cycle. By using [NaNO2] 2 M and considering pH 5.2 and based on Henderson-Hasselbalch equation, we calculated that 18 mM of the nitrous acid exists in CLV (Cleave) reagent. Although, this cleave formulation is efficient in converting dNTP-RT to dNTP on the sequencing strand, however, it may have one or more disadvantages, such as instability, corrosivity, and/or DNA damage. Regarding instability: nitrous acid in our current CLV reagent degrades and produces nitrogen oxide gas (NOx) which weaken strength of the deblocking reagent. Nitrous acid is very corrosive and has […] with plastics consumables and instruments.
Y axis is on/off intensities. […] A library of polynucleotides were sequenced in a sequencing-by-binding workflow, and On/Off signal intensity was measured in each sequencing cycle, as described in US Patent Pub. […]

The nature of data set [3]: Solubility of the deblocking agent in the deblocking composition. In kind it is physicochemical. To be noted: in words. Here is the method: as §1
Where [4] appears, read: compared to SOP cleave in sodium acetate buffer, in words.

Read-outs that look alike come from different tables or passages of the source.

On to `CCC(=O)CP(=O)([O-])[O-].[Na+].[Na+]` [Di sodium (2-oxobutyl)phosphonate], for which, in data set [1], the “Extension at 40 C. in 37 cycles Octet CE assay” value amounted to 4 bp Extension and the “Extension at 52 C. in 37 cycles octet/Ce assay” value is recorded as 4 bp Extension. In addition, in data set [1] (in words), the “cleavage of NO bond (deblocking, extension in multiple cycles)” value (shortened to “cleavage of NO bond”) is “deblocking”.

For the compound `CNC(=O)NC` [Dimethyl urea, reference compound], in data set [1], the “Extension at 40 C. in 37 cycles Octet CE assay” value is recorded as “No Extension”.

Turning to Hydroxycarbamide [reference compound], the “Extension at 40 C. in 37 cycles Octet CE assay” value in data set [1] is on record as “No extension”.

Turning to `O=C(P(=O)(O)O)P(=O)(O)O` [CDP, Carbonyl diphosphonate], in data set [2], the “signal to noise ratio” value was “comparable”. In data set [3], the solubility issue entry is recorded as “slight solubility issue”. Further, in data set [1], the “cleavage of NO bond” value is reported as “comparable to NaNO2” and the “Extension at 40 C. in 37 cycles Octet CE assay” value is listed as 37 bp Extension. Besides, in data set [1] (37 cycles of extension), the negative phasing is reported as 0.21% and the positive phasing came out at 0.17%. In data set [1] (setting [4]), the “negative dephasing on electropherogram” value was “higher negative dephasing” and the “positive dephasing on electropherogram” value was “higher positive dephasing”. For the same compound, in data set [1] (compared to SOP, in words), the dephasing of product entry was “minimal dephasing”. In data set [1] (in words), the “cleavage of NO bond” value was “deblocking”.

For `CS(=O)(=O)CC(=O)c1ccccc1` [Methyl sulfonyl acetophenone], in data set [1], the “Extension at 40 C. in 37 cycles Octet CE assay” value is recorded as 5 bp Extension and the “Extension at 52 C. in 37 cycles octet/Ce assay” value is given as 5 bp Extension. Besides, in data set [1] (in words), the “cleavage of NO bond” value is recorded as “deblocking”.

As to `COP(=O)([O-])C(C)=O.[Na+]` [methyl acetylphosphonate, methyl acetylphosphonate CH3—CO—PO(Ome)—O^− Na^+, reference compound], the “Extension at 40 C. in 37 cycles Octet CE assay” value in data set [1] is “No Extension”.

Turning to `CC(=O)P(=O)([O-])[O-].[Na+].[Na+]` [Di sodium acetylphosphonate], in data set [1], the “Extension at 40 C. in 37 cycles Octet CE assay” value is reported as 12 bp Extension and the “Extension at 52 C. in 37 cycles octet/Ce assay” value came out at 3 bp Extension. The “cleavage of NO bond” value in data set [1] (in words) is given as “deblocking”.

Regarding `O=Cc1ccc(S(=O)(=O)[O-])cc1S(=O)(=O)[O-].[Na+].[Na+]` [Di sodium 4-formylbenzene-1,3-disolfonate], in data set [1], the “Extension at 40 C. in 37 cycles Octet CE assay” value came to 3 bp Extension and the “Extension at 52 C. in 37 cycles octet/Ce assay” value was 3 bp Extension. Besides, in data set [1] (in words), the “cleavage of NO bond” value is reported as “deblocking”.

In the case of `CC(=O)OP(=O)([O-])[O-].[K+].[Li+]` [LiK Aceyl Phosphate, reference compound], in data set [1], the “Extension at 40 C. in 37 cycles Octet CE assay” value is “No Extension”.

In data set [1], `O=N[O-].[Na+]` [NaNO2, sodium nitrite, reference compound] yielded a negative phasing of 0.04% and a positive phasing of 0.05%.

The values are drawn from US20250002960A1, “COMPOSITIONS AND METHODS FOR NUCLEIC ACID EXTENSION” (Pacific Biosciences of California, Inc., priority 2023, published 2025).
